Assay results: PMC9775191, “A Subset Screen of the Compounds Australia Scaffold Library Identifies 7-Acylaminodibenzoxazepinones as Potent and Selective Hits for Anti-Giardia Drug Discovery” (Biomedicines, 2022)

Tested on: G. duodenalis BRIS/91/HEPU/1279
Assay: Primary Giardia screen at 10 µM (live-cell imaging, automated counting)
Format: cell-based, Giardia duodenalis
Settings: for % Inhibition n=1 48h / % Inhibition n=1 24h: first singlicate assay; for % Inhibition n=2 24h / % Inhibition n=2 48h: re-assessment
In short: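 Percent growth versus 0.2% DMSO vehicle, background-corrected with media-only wells, is reported at 24 and 48 h from automated live-cell counts. Testing used 10 μM final in a 3% O2 atmosphere, with plate quality checked by Z' factor.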

Structure (SMILES)	% Inhibition n=1 48h	other results
COc1ccccc1OCCNC(=O)Cn1ccc2c(c(C)nn2-c2ccccc2)c1=O [SN00797916]	27.1%	–
CCS(=O)(=O)c1nc2ccc(NS(=O)(=O)c3ccc4c(c3)OCCO4)cc2s1 [SN00797922]	0.0%	–
CCCS(=O)(=O)c1nc2ccc(NS(=O)(=O)CCc3ccccc3)cc2s1 [SN00797950]	20.2%	–
COc1cccc(CNC(=O)C2CCCN(c3nccc4c(C)nn(C)c34)C2)c1 (stereo not drawn) [SN00797953]	0.0%	–
COc1cccc(Cn2nc3c(S(=O)(=O)N4CCOCC4)cccn3c2=O)c1 [SN00798018]	4.9%	–
O=c1n(Cc2cccc(Br)c2)nc2c(S(=O)(=O)N3CCOCC3)cccn12 [SN00798020]	0.0%	–
CCc1ccc(-n2ccc(=O)c(-c3nc(-c4cccc(Cl)c4)no3)n2)cc1 [SN00798039]	4.9%	–
Cc1cccc(-c2cc(N3CCN(C(=O)c4cc(Cl)ccc4F)CC3)ncn2)c1 [SN00798065]	47.1%	–
Cc1ccc(-c2noc(-c3cccn4c(=O)n(CC(=O)Nc5cc(C)ccc5C)nc34)n2)cc1 [SN00798102]	23.0%	–
COc1ccc(-n2nnc(-c3nsc(Nc4ccc(Cl)cc4)n3)c2C)cc1 [SN00798137]	11.6%	–
COc1ccc(Nc2nc(-c3nnn(-c4ccc(F)cc4F)c3C)ns2)cc1OC [SN00798157]	52.7%	Average % Inhibition 24h: 11.4%; % Inhibition n=1 24h: 18.3%; % Inhibition n=2 24h: 4.5%; Average % Inhibition 48h: 26.3%; % Inhibition n=2 48h: 0.0%
CCc1ccc(CNC(=O)c2cc3ccncc3n2C)cc1 [SN00798182]	20.1%	–
CC(NC(=O)c1cc2ccncc2[nH]1)c1ccccc1 (stereo not drawn) [SN00798186]	4.2%	–
COc1ccc(OC)c(CNC(=O)c2ccc3[nH]c4c(c3c2)CN(C(C)=O)CC4)c1 [SN00798195]	0.0%	–
O=C(NCCc1ccccn1)c1ccc2[nH]c3c(c2c1)CN(C(=O)C1CCC1)CC3 [SN00798214]	0.0%	–
CCN1CCc2[nH]c3ccc(NC(=O)c4ccn(CC)n4)cc3c2C1 [SN00798224]	1.1%	–
COC(=O)c1ccccc1NC(=O)Nc1ccc2[nH]c3c(c2c1)CN(C(C)C)CC3 [SN00798231]	4.3%	–
CNC(=O)N1CCC(c2nc(C)c(C(=O)NCCCOC)s2)CC1 [SN00798240]	6.4%	–
Cc1nc(C2CCN(C(=O)Nc3ccccc3)CC2)sc1C(=O)N1CCCCCC1 [SN00798241]	0.0%	–
Cc1ccc(-c2nc(-c3cccc(-c4ccn[nH]4)c3)no2)cc1 [SN00798298]	55.6%	Average % Inhibition 24h: 6.3%; % Inhibition n=1 24h: 9.4%; % Inhibition n=2 24h: 3.2%; Average % Inhibition 48h: 41.5%; % Inhibition n=2 48h: 27.4%
Cc1cc(-c2cc(S(=O)(=O)N(CCN(C)C)Cc3cccs3)c(C)s2)[nH]n1 [SN00798340]	13.6%	–
Cc1nc(-c2ccc3c(c2)n(CC(=O)NC2CCN(Cc4ccccc4)CC2)c(=O)n3C(C)C)no1 [SN00798376]	5.7%	–
Cc1nnc(-c2ccc3ccn(CC(=O)NC4CC4)c3c2)o1 [SN00798392]	0.0%	–
CCc1nc(-c2cc(S(=O)(=O)NCc3ccc(F)c(Cl)c3)c(C)s2)cs1 [SN00798443]	50.2%	Average % Inhibition 24h: 15.2%; % Inhibition n=1 24h: 16.9%; % Inhibition n=2 24h: 13.6%; Average % Inhibition 48h: 43.8%; % Inhibition n=2 48h: 37.5%

Structure (SMILES)	% Inhibition n=1 48h	other results
COc1ccc(C(=O)Nc2cc(-c3nc(C)cs3)sc2C)cc1OC [SN00798474]	27.2%	–
COc1ccc(-c2nc(CS(=O)(=O)c3ccc(C)cc3)no2)c(C)c1 [SN00798481]	11.0%	–
Cc1sc2cc(C(=O)NC(C)(C)C)[nH]c2c1CN1CCOCC1 [SN00798503]	2.4%	–
Cc1sc2cc(C(=O)N3CCN(c4ccc(F)cc4)CC3)[nH]c2c1CN1CCOCC1 [SN00798508]	27.9%	–
COc1ccc(CNC(=O)c2[nH]c3cc(C)sc3c2CN2CCCC2)cc1 [SN00798517]	35.5%	–
CC(C)Cn1cc2c3c(cccc31)CN(C(=O)Cc1cccs1)CC2 [SN00798552]	35.1%	–
COCCn1cc2c3c(cccc31)CN(C(=O)c1cccc(Cl)c1)CC2 [SN00798558]	26.2%	–
Cn1cc2c3c(cccc31)CN(C(=O)NC(C)(C)C)CC2 [SN00798578]	7.2%	–
COCCn1cc2c3c(cccc31)CN(C(=O)Nc1ccccc1F)CC2 [SN00798581]	22.0%	–
Cc1nnc(-c2cc(NS(=O)(=O)c3ccc(Cl)cc3)c(C)s2)o1 [SN00798629]	2.8%	–
COc1ccccc1-c1nc(C2CCCN(C(=O)c3ccc(C(C)C)cc3)C2)no1 (stereo not drawn) [SN00798647]	0.0%	–
Cc1cc(C)cc(C(=O)NCc2ccc3c(c2)nnn3C)c1 [SN00798663]	0.0%	–
Cn1nnc2cc(CNC(=O)c3ccc(F)cc3)ccc21 [SN00798670]	3.3%	–
CCCNC(=O)c1cn(C)nc1S(=O)(=O)N1CCC(C)CC1 [SN00798692]	3.5%	–
CCn1cc(C(=O)Nc2ccc(F)cc2)c(S(=O)(=O)N2CCC(C)CC2)n1 [SN00798700]	0.0%	–
CCOC(=O)c1ccc(NC(=O)Cn2c(=O)cc(-c3nc(C)no3)c3ccccc32)cc1 [SN00798707]	2.1%	–
CC(C)c1noc(-c2cc(=O)n(CC(=O)N3CCCC3)c3ccccc23)n1 [SN00798718]	0.0%	–
Nc1nc(N2CCN(C(=O)c3ccco3)CC2)ncc1C(=O)Nc1ccccc1 [SN00798744]	0.0%	–
COc1ccc(NC(=O)c2cnc(N3CCN(CC(=O)N4CCCC4)CC3)nc2N)cc1 [SN00798764]	0.0%	–
O=S(=O)(c1cccs1)N1CCc2[nH]cnc2C1 [SN00798784]	0.0%	–
Cc1cc(C)c(S(=O)(=O)N2CCc3[nH]cnc3C2)cc1C [SN00798786]	0.0%	–
COc1c(C(=O)Nc2ccccc2)oc2ccc(NC(=O)C3CCCCC3)cc12 [SN00798797]	3.8%	–
COc1c(C(=O)Nc2ccc(C)cc2)oc2ccc(NC(=O)c3ccc(C)s3)cc12 [SN00798811]	19.9%	–
CC(=O)N1CCc2cc(C)c(S(=O)(=O)NC3CC3)cc21 [SN00798831]	4.3%	–
